From article PMC8662641, “Site-Specific Labeling of Endogenous Proteins Using CoLDR Chemistry” (Journal of the American Chemical Society, 2021)
Where “and” joins values, the source holds several entries; their conditions need not be identical. Identical values can stand only once.

Legend:
BTK-1h = target: T1, BTK-1h (Homo sapiens, UniProt Q06187); assay: High-throughput screening with 1h-labeled BTK; assay type: binding
T1 construct: The BTK kinase domain was diluted to 2 μM in the buffer, and 2 μM 1h was added; made in house
T1 sequence (Q06187 402-655): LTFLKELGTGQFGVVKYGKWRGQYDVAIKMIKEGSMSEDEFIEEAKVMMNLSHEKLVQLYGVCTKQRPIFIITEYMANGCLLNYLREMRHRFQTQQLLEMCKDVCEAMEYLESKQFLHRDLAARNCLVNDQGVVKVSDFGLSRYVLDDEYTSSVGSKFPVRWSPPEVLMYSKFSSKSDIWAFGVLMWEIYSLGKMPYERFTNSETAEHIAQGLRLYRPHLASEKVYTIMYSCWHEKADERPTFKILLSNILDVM
Protocol: The collection was composed of BTK binding compounds obtained in our previous luminescence screen[37] (Data set S2). […] The resulting BTK-1h (50 μL) was added to the inhibitors.

BTK = BTK (Homo sapiens, UniProt Q06187); design: BTK kinase domain was expressed and purified as previously reported; made in house; method as in Reddi et al., J. Am. Chem. Soc. 2021, 143 (13), 4979–4992; details: ref Reddi et al., J. Am. Chem. Soc. 2021, 143 (13), 4979–4992; cited from earlier work
Chain of BTK (Q06187 402-655 limits assumed): as the sequence (Q06187 402-655) above

[1] = Dataset S2A, 200 μM compound, BTK-1h, 32 °C, 10 min

C=CC(=O)Nc1cccc(Nc2nc(Nc3ccc(OCCOC)cc3)ncc2F)c1 [PCM-0095787-002]
FI (650)/FI (620) (BTK-1h; [1]): 1.569 | FI (BTK-1h)/FI (BTK-1h+Inhibitor) at 620 nm (BTK-1h; [1]): 1.288 | BTK Inhibition reported in luminescence assay* (BTK): 90.3

Cc1cc(C)nc(NS(=O)(=O)c2ccc(NC(=S)NC(=O)COc3ccc(Br)cc3Cl)cc2)n1 [PCM-0095801-002]
FI (650)/FI (620) (BTK-1h; [1]): 0.8921 | FI (BTK-1h)/FI (BTK-1h+Inhibitor) at 620 nm (BTK-1h; [1]): 1.024 | BTK Inhibition reported in luminescence assay* (BTK): 59.5

C#CC[C@H](c1nc2cc(Cl)ccc2c(=O)n1Nc1ccccc1)N(CCCN)C(=O)c1cccc(Cl)c1F [PCM-0095802-002]
FI (650)/FI (620) (BTK-1h; [1]): 1.024 | FI (BTK-1h)/FI (BTK-1h+Inhibitor) at 620 nm (BTK-1h; [1]): 1.031 | BTK Inhibition reported in luminescence assay* (BTK): 52.5

CCOC(=O)c1ccc(N2NC(=O)/C(=C/c3ccc([N+](=O)[O-])o3)C2=O)cc1 [PCM-0095807-002]
FI (650)/FI (620) (BTK-1h; [1]): 2.739 | FI (BTK-1h)/FI (BTK-1h+Inhibitor) at 620 nm (BTK-1h; [1]): 1.077 | BTK Inhibition reported in luminescence assay* (BTK): 64.9

Cc1nc(Nc2n[nH]c3c2CN(C(=O)N[C@H](CN(C)C)c2ccccc2)C3(C)C)c2sccc2n1 [PCM-0095819-002]
FI (650)/FI (620) (BTK-1h; [1]): 0.9908 | FI (BTK-1h)/FI (BTK-1h+Inhibitor) at 620 nm (BTK-1h; [1]): 1.0756 | BTK Inhibition reported in luminescence assay* (BTK): 72.4

Cc1cnc(Nc2ccc(F)cc2Cl)nc1-c1c[nH]c(C(=O)N[C@H](CO)c2cccc(Cl)c2)c1 [PCM-0213398-002]
FI (650)/FI (620) (BTK-1h; [1]): 1.007 | FI (BTK-1h)/FI (BTK-1h+Inhibitor) at 620 nm (BTK-1h; [1]): 1.033 | BTK Inhibition reported in luminescence assay* (BTK): 60

CC(C)N1CCN(Cc2cnc(-c3cc(-c4cccc5[nH]ccc45)cc4[nH]ncc34)o2)CC1 [PCM-0213407-002]
FI (650)/FI (620) (BTK-1h; [1]): 0.9167 | FI (BTK-1h)/FI (BTK-1h+Inhibitor) at 620 nm (BTK-1h; [1]): 1.042 | BTK Inhibition reported in luminescence assay* (BTK): 51.7

CN(C)C/C=C/C(=O)Nc1ccc(C(=O)Nc2cccc(Nc3ncc(Cl)c(-c4c[nH]c5ccccc45)n3)c2)cc1 [PCM-0213464-002, THZ1 2HCl]
FI (650)/FI (620) (BTK-1h; [1]): 2.745 | FI (BTK-1h)/FI (BTK-1h+Inhibitor) at 620 nm (BTK-1h; [1]): 2.341 | FI (650)/FI (620) (BTK-1h; Dataset S2C, BTK-1h with inhibitor): 2.341 | BTK Inhibition reported in luminescence assay* (BTK): 116.6

CC1=C(O)C(=O)C=C2C1=CC=C1[C@@]2(C)CC[C@@]2(C)[C@@H]3C[C@](C)(C(=O)O)CC[C@]3(C)CC[C@]12C [PCM-0214611-001]
FI (650)/FI (620) (BTK-1h; [1]): 0.9422 | FI (BTK-1h)/FI (BTK-1h+Inhibitor) at 620 nm (BTK-1h; [1]): 1.014 | BTK Inhibition reported in luminescence assay* (BTK): 67.7

O=c1cc(-c2ccccc2)oc2cc(O)c(O)c(O)c12 [PCM-0214670-001]
FI (650)/FI (620) (BTK-1h; [1]): 2.028 | FI (BTK-1h)/FI (BTK-1h+Inhibitor) at 620 nm (BTK-1h; [1]): 1.072 | BTK Inhibition reported in luminescence assay* (BTK): 79.4

Cc1cc(N2CCOCC2)cc2[nH]c(-c3c(NC[C@@H](O)c4cccc(Cl)c4)cc[nH]c3=O)nc12 [PCM-0214699-001]
FI (650)/FI (620) (BTK-1h; [1]): 1.235 | FI (BTK-1h)/FI (BTK-1h+Inhibitor) at 620 nm (BTK-1h; [1]): 1.093 | BTK Inhibition reported in luminescence assay* (BTK): 109

COC(=O)C1=C(C)NC(C)=C(C(=O)O[C@@H]2CCCN(Cc3ccccc3)C2)[C@@H]1c1cccc([N+](=O)[O-])c1.Cl [PCM-0214706-001]
FI (650)/FI (620) (BTK-1h; [1]): 1.754 | FI (BTK-1h)/FI (BTK-1h+Inhibitor) at 620 nm (BTK-1h; [1]): 1.03 | BTK Inhibition reported in luminescence assay* (BTK): 80.9

COc1cccc2c1C(=O)c1c(O)c3c(c(O)c1C2=O)C[C@@](O)(C(=O)CO)C[C@@H]3O[C@H]1C[C@H](N)[C@H](O[C@@H]2CCCCO2)[C@H](C)O1 [PCM-0214749-001]
FI (650)/FI (620) (BTK-1h; [1]): 0.7711 | FI (BTK-1h)/FI (BTK-1h+Inhibitor) at 620 nm (BTK-1h; [1]): 1.012 | BTK Inhibition reported in luminescence assay* (BTK): 53.7

Cc1ccc(-n2[nH]c(C)c(N=Nc3cccc(-c4cccc(C(=O)O)c4)c3O)c2=O)cc1C [PCM-0214811-001]
FI (650)/FI (620) (BTK-1h; [1]): 1.073 and 1.008 | FI (BTK-1h)/FI (BTK-1h+Inhibitor) at 620 nm (BTK-1h; [1]): 1.009 and 1.024 | BTK Inhibition reported in luminescence assay* (BTK): 80.2

Cc1cc(-c2ccc(N=Nc3ccc4c(S(=O)(=O)[O-])cc(S(=O)(=O)[O-])c(N)c4c3O)c(C)c2)ccc1N=Nc1ccc2c(S(=O)(=O)[O-])cc(S(=O)(=O)[O-])c(N)c2c1O.[Na+].[Na+].[Na+].[Na+] [PCM-0214845-001]
FI (BTK-1h)/FI (BTK-1h+Inhibitor) at 620 nm (BTK-1h; [1]): 7.121 | BTK Inhibition reported in luminescence assay* (BTK): 125.3
